Here are results for 34 molecules from US20100130477A1, “Spirocyclobutyl Piperidine Derivatives” (ASTRAZENECA AB, priority 2008, published 2010).

pIC50: −log10 of the molar value.

This test deals with T1, human Histamine H3 receptor (hH3R) (Homo sapiens, UniProt Q9Y5N1).
T1 construct: expressed in transfected cells; host or cells: CHO cells (Chinese Hamster Ovary); membranes
T1 sequence (Q9Y5N1 whole entry): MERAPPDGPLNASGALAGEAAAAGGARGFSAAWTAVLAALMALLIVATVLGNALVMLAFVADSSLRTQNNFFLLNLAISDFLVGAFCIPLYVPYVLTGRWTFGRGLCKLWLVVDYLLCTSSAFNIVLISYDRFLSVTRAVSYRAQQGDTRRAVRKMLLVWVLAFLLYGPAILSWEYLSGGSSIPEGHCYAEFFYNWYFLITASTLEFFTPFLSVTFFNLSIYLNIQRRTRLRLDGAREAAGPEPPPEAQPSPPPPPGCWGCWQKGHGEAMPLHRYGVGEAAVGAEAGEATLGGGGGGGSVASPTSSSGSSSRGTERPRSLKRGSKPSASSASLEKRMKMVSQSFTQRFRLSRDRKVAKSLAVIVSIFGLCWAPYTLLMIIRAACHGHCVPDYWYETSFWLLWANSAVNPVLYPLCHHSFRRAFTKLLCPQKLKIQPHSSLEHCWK
The experiment in a line: GTPγS Binding Assay (antagonist activity, [35S]GTPγS, (R)-α-methyl histamine 30 nM). The class given is biochemical. Conditions: membranes from CHO cells expressing hH3R, 90 minutes at room temperature. The method, then:
Guanosine 5′-O-(3-[^35S]thio)triphosphate [GTPγS] Binding Assay
A GTPγS binding assay can be used to investigate antagonist properties of compounds in CHO cells (Chinese Hamster Ovary) transfected with human Histamine H3 receptor (hH3R). Membranes from CHO cells expressing hH3R (10 μg/well) are diluted in GTPγS assay buffer (20 mM Hepes, 10 mM MgCl2, 100 mM NaCl, pH 7.4) and preincubated with saponine (3 μg/ml), GDP (10 μM) and PVT-WGA SPA beads (125 μg/well) (Amersham) for 30 minutes. To determine antagonist activity, (R)-α-methyl histamine (30 nM) is added in 96 well SPA plate with [^35S]GTPγS (0.2 nM) and various concentration of H3R antagonists. The GTPγS binding assay is started with addition of the mixture membrane/saponine/GDP and incubated for 90 minutes at room temperature. The amount of bound [^35S]GTPγS is determined by using the MicroBeta Trilux counter (PerkinElmer). The percentage of [^35S]GTPγS bound in each sample is calculated as a percentage of that bound control sample incubated in absence of H3 antagonist. Duplicate determinations are obtained for each concentration, and the data are analyzed using ExcelFit4 to obtain the IC50.
(Binding of GTPγS marks nucleotide exchange on a G protein.)
Regarding `O=C(C1CC2(CCN(S(=O)(=O)c3ccccc3F)CC2)C1)N1CCCN(C2CCC2)CC1` [Example 40, (4-cyclobutyl-1,4-diazepan-1-yl)(7-(2-fluorophenylsulfonyl)-7-azaspiro[3.5]nonan-2-yl)methanone], the pIC50 was 8.21.
The figure for `Cc1cccc(C(=O)N2CCC3(CC2)CC(C(=O)N2CCN(C4CCC4)CC2)C3)n1` [Example 18, (4-cyclobutylpiperazin-1-yl)(7-(6-methylpicolinoyl)-7-azaspiro[3.5]nonan-2-yl)methanone] is 7.27; for `N#Cc1cccc(C(=O)N2CCC3(CC2)CC(C(=O)N2CCCN(C4CCC4)CC2)C3)c1` [Example 50, 3-(2-(4-cyclobutyl-1,4-diazepane-1-carbonyl)-7-azaspiro[3.5]nonane-7-carbonyl)benzonitrile] it is 8.12.
Take `Cc1cc(C(=O)N2CCC3(CC2)CC(C(=O)N2CCN(C4CCC4)CC2)C3)ccn1` [Example 24, (4-cyclobutylpiperazin-1-yl)(7-(2-methylisonicotinoyl)-7-azaspiro[3.5]nonan-2-yl)methanone]: the pIC50 is 7.66.
The result for `CC(C)N1CCCN(C(=O)C2CC3(CCN(S(C)(=O)=O)CC3)C2)CC1` [Example 52, (4-isopropyl-1,4-diazepan-1-yl)(7-(methylsulfonyl)-7-azaspiro[3.5]nonan-2-yl)methanone] reads 7.25; that for `O=C(C1CC2(CCN(S(=O)(=O)c3ccccc3)CC2)C1)N1CCCN(C2CCC2)CC1` [Example 41, (4-cyclobutyl-1,4-diazepan-1-yl)(7-(phenylsulfonyl)-7-azaspiro[3.5]nonan-2-yl)methanone], 8.06; that for `O=C(CCc1ccncc1)N1CCC2(CC1)CC(C(=O)N1CCN(C3CCC3)CC1)C2` [Example 29, 1-(2-(4-cyclobutylpiperazine-1-carbonyl)-7-azaspiro[3.5]nonan-7-yl)-3-(pyridin-4-yl)propan-1-one], 7.70.
The result for `N#Cc1ccc(C(=O)N2CCC3(CC2)CC(C(=O)N2CCCN(C4CCC4)CC2)C3)cc1` [Example 49, 4-(2-(4-cyclobutyl-1,4-diazepane-1-carbonyl)-7-azaspiro[3.5]nonane-7-carbonyl)benzonitrile] reads 8.28; that for `Cc1ccnc(C)c1C(=O)N1CCC2(CC1)CC(C(=O)N1CCN(C3CCC3)CC1)C2` [Example 11, (4-cyclobutylpiperazin-1-yl)(7-(2,4-dimethylnicotinoyl)-7-azaspiro[3.5]nonan-2-yl)methanone], 7.77; that for `CC(C)S(=O)(=O)N1CCC2(CC1)CC(C(=O)N1CCN(C3CCC3)CC1)C2` [Example 4, (4-cyclobutylpiperazin-1-yl)(7-(isopropylsulfonyl)-7-azaspiro[3.5]nonan-2-yl)methanone], 7.81.
The figure for `CC(C)N1CCN(C(=O)C2CC3(CCN(C(=O)c4cccnc4)CC3)C2)CC1` [Example 36, (4-isopropylpiperazin-1-yl)(7-nicotinoyl-7-azaspiro[3.5]nonan-2-yl)methanone] is 7.17; for `O=C(c1cncc(Cl)c1)N1CCC2(CC1)CC(C(=O)N1CCN(C3CCC3)CC1)C2` [Example 9, (7-(5-chloronicotinoyl)-7-azaspiro[3.5]nonan-2-yl)(4-cyclobutylpiperazin-1-yl)methanone] it is 7.68.
In turn, `O=C(c1cccnc1)N1CCC2(CC1)CC(C(=O)N1CCN(C3CCC3)CC1)C2` [Example 21, (4-cyclobutylpiperazin-1-yl)(7-nicotinoyl-7-azaspiro[3.5]nonan-2-yl)methanone] showed a pIC50 of 7.74.
In the case of `O=C(c1ccccc1)N1CCC2(CC1)CC(C(=O)N1CCN(C3CCC3)CC1)C2` [Example 30, (7-benzoyl-7-azaspiro[3.5]nonan-2-yl)(4-cyclobutylpiperazin-1-yl)methanone], the pIC50 was 7.32.
The molecule `Cc1cncc(C(=O)N2CCC3(CC2)CC(C(=O)N2CCN(C4CCC4)CC2)C3)c1` [Example 25, (4-cyclobutylpiperazin-1-yl)(7-(5-methylnicotinoyl)-7-azaspiro[3.5]nonan-2-yl)methanone] showed a pIC50 of 7.90.
The figure for `N#Cc1ccc(C(=O)N2CCC3(CC2)CC(C(=O)N2CCN(C4CCC4)CC2)C3)nc1` [Example 15, 6-(2-(4-cyclobutylpiperazine-1-carbonyl)-7-azaspiro[3.5]nonane-7-carbonyl)nicotinonitrile] is 7.50; for `N#Cc1cnccc1C(=O)N1CCC2(CC1)CC(C(=O)N1CCN(C3CCC3)CC1)C2` [Example 64, 4-(2-(4-cyclobutylpiperazine-1-carbonyl)-7-azaspiro[3.5]nonane-7-carbonyl)nicotinonitrile] it is 7.78.
`Cc1cc(C(=O)N2CCC3(CC2)CC(C(=O)N2CCN(C4CCC4)CC(C)(C)C2)C3)ccn1` [Example 57, (4-cyclobutyl-6,6-dimethyl-1,4-diazepan-1-yl)(7-(2-methylisonicotinoyl)-7-azaspiro[3.5]nonan-2-yl)methanone]: the pIC50 is 6.15.
The molecule `O=C(c1cccnc1)N1CCC2(CC1)CC(C(=O)N1CCCN(C3CCC3)CC1)C2` [Example 47, (4-cyclobutyl-1,4-diazepan-1-yl)(7-nicotinoyl-7-azaspiro[3.5]nonan-2-yl)methanone] showed a pIC50 of 8.08.
For `Cc1cnccc1C(=O)N1CCC2(CC1)CC(C(=O)N1CCN(C3CCC3)CC1)C2` [Example 23, (4-cyclobutylpiperazin-1-yl)(7-(3-methylisonicotinoyl)-7-azaspiro[3.5]nonan-2-yl)methanone], the pIC50 was 8.22.
The result for `O=C(c1cnccc1Cl)N1CCC2(CC1)CC(C(=O)N1CCN(C3CCC3)CC1)C2` [Example 10, (7-(4-chloronicotinoyl)-7-azaspiro[3.5]nonan-2-yl)(4-cyclobutylpiperazin-1-yl)methanone] reads 7.53; that for `Cc1ncccc1C(=O)N1CCC2(CC1)CC(C(=O)N1CCN(C3CCC3)CC1)C2` [Example 13, (4-cyclobutylpiperazin-1-yl)(7-(2-methylnicotinoyl)-7-azaspiro[3.5]nonan-2-yl)methanone], 7.55; that for `Cc1cc(C(=O)N2CCC3(CC2)CC(C(=O)N2CCN(C(C)C)CC2)C3)ccn1` [Example 34, (4-isopropylpiperazin-1-yl)(7-(2-methylisonicotinoyl)-7-azaspiro[3.5]nonan-2-yl)methanone], 7.18.
Turning to `Cc1cccnc1C(=O)N1CCC2(CC1)CC(C(=O)N1CCN(C3CCC3)CC1)C2` [Example 19, (4-cyclobutylpiperazin-1-yl)(7-(3-methylpicolinoyl)-7-azaspiro[3.5]nonan-2-yl)methanone], the pIC50 is 7.61.
Regarding `N#Cc1ccccc1C(=O)N1CCC2(CC1)CC(C(=O)N1CCCN(C3CCC3)CC1)C2` [Example 51, 2-(2-(4-cyclobutyl-1,4-diazepane-1-carbonyl)-7-azaspiro[3.5]nonane-7-carbonyl)benzonitrile], the pIC50 was 8.30.
The figure for `O=C(c1ccncc1)N1CCC2(CC1)CC(C(=O)N1CCN(C3CCC3)CC1)C2` [Example 22, (4-cyclobutylpiperazin-1-yl)(7-isonicotinoyl-7-azaspiro[3.5]nonan-2-yl)methanone] is 7.90; for `O=C(C1CC2(CCN(c3cccnc3)CC2)C1)N1CCN(C2CCC2)CC1` [Example 1, (4-cyclobutylpiperazin-1-yl)(7-(pyridin-3-yl)-7-azaspiro[3.5]nonan-2-yl)methanone] it is 7.75; for `O=C(C1CC2(CCN(c3cnccn3)CC2)C1)N1CCN(C2CCC2)CC1` [Example 65, (4-cyclobutylpiperazin-1-yl)(7-(pyrazin-2-yl)-7-azaspiro[3.5]nonan-2-yl)methanone] it is 7.29.
Take `O=C(C1CCCCC1)N1CCC2(CC1)CC(C(=O)N1CCN(C3CCC3)CC1)C2` [Example 7, (4-cyclobutylpiperazin-1-yl)(7-(cyclohexanecarbonyl)-7-azaspiro[3.5]nonan-2-yl)methanone]: the pIC50 is 7.28.
For `CC(C)N1CCN(C(=O)C2CC3(CCN(C(=O)N(C)C)CC3)C2)CC1` [Example 37, 2-(4-isopropylpiperazine-1-carbonyl)-N,N-dimethyl-7-azaspiro[3.5]nonane-7-carboxamide], the pIC50 is 6.94.
The figure for `CC(C)N1CCN(C(=O)C2CC3(CCN(S(C)(=O)=O)CC3)C2)CC1` [Example 33, (4-isopropylpiperazin-1-yl)(7-(methylsulfonyl)-7-azaspiro[3.5]nonan-2-yl)methanone] is 7.47.
`O=C(C1CC2(CCN(S(=O)(=O)c3cccc(F)c3)CC2)C1)N1CCCN(C2CCC2)CC1` [Example 39, (4-cyclobutyl-1,4-diazepan-1-yl)(7-(3-fluorophenylsulfonyl)-7-azaspiro[3.5]nonan-2-yl)methanone] had a pIC50 of 8.00. Against the preceding molecule, the pIC50 is 0.53 log units higher.
`O=C(C1CC2(CCN(S(=O)(=O)c3ccccc3)CC2)C1)N1CCN(C2CCC2)CC1` [Example 6, (4-cyclobutylpiperazin-1-yl)(7-(phenylsulfonyl)-7-azaspiro[3.5]nonan-2-yl)methanone] gave a pIC50 of 8.18.
Regarding `C[C@H]1CN(C(=O)C2CC3(CCN(S(C)(=O)=O)CC3)C2)CCN1C1CCC1` [Example 59, ((S)-4-cyclobutyl-3-methylpiperazin-1-yl)(7-(methylsulfonyl)-7-azaspiro[3.5]nonan-2-yl)methanone], the pIC50 is 6.43.

Broadly, the pIC50 is the IC50 on a negative log10 scale, so that one unit is a factor of ten.
